The results in this text go back to patent publication US20040229930A1, “Formulations comprising a basic indolinone compound” (Pharmacia Italia S.p.A., priority 2002, published 2004).

The nature of the series: Bulk density determination of granules / drug substance. It is filed as physicochemical. An excerpt: Generally, bulk density is the weight of a unit volume of material. Bulk density is also known as “apparent density.” Bulk density is typically expressed as a weight:volume ratio, for example, kilograms per liter (Kg/L) or grams per cubic centimeter (g/cm[…]). Bulk desntiy of a material can be measured by techniques that are well known in the art, by measuring the weight and volume of the material. See the Examples section of this application for exemplary techniques for measurement of bulk density.
The tap and bulk density determinations are performed as follows:
(a) A 250 mL glass cylinder is filled with formulation granules to the 100-200 mL volume mark.
(b) The mass of the cyclinder is recorded and the bulk density is determined by calculating the ratio of the mass of the formulation granules to the volume of the formulation granules.

Take `Cc1[nH]c(/C=C2\C(=O)Nc3ccc(F)cc32)c(C)c1C(=O)NCC(O)CN1CCOCC1` (centres unmarked) [5-[(Z)-(5-fluoro-2-oxo-1,2-dihydro-3H-indol-3-ylidene)methyl]-N-[2-hydroxy-3-morpholin-4-ylpropyl]-2,4-dimethyl-1H-pyrrole-3-carboxamide]: the bulk density (maleate salt by itself) was in the range of 0.05 to 0.07 kg/L.

Turning to `CCN(CC)CCNC(=O)c1c(C)[nH]c(/C=C2\C(=O)Nc3ccc(F)cc32)c1C` [5-(5-fluoro-2-oxo-1,2-dihydro-indol-3-ylidenemethyl)-2,4-dimethyl-1H-pyrrole-3-carboxylic acid (2-diethylamino-ethyl)-amide], where the note is “salt by itself”, the bulk density entry is given as “about 0.11±0.1”.
